Results: patent US20070259819A1, “Cosmetic Use of at Least Natural Tetrapeptide Ac-Ser-Asp-Lys-Pro or One of Its Analogs as a Skin Anti-Aging and Restructuring Agent” (Centre National De La Recherche Scientfique (CNRS), priority 2004, published 2007)
Entries after “also recorded” stand apart in the source; their conditions may differ. Peptide text beside a SMILES is read from it.

Columns and labels:
Assay type in all cases: cell-based
[1] = system: collagen IV; assay: Immunolabelling of collagen IV in human skin explants; details: D6 and D8
Experimental: (§1) This study was conducted on thirty six human skin explants obtained from breast plastic surgery.
(§2) All the explants were maintained in a state of survival in a culture medium for eight days. AcSDKP at a concentration of 10^−5 M or 10^−8 M in physiological serum was applied to the explants by topical route every day for one week. On days 2, 4, 6 and 8, three explants from each batch (control, +AcSDKP 10^−5 M+ AcSDKP 10^−8 M) were removed and prepared for histological studies. General morphology was examined and an evaluation of the expression of basal keratin (CK14), undifferentiated keratin (CK19), collagen III, collagen IV, fibronectin and glycosaminoglycan without an acid group was performed.

[2] = system: human skin explants; assay: General morphology of human skin explants (histology); details: topical daily
Experimental: as §1, §2

[3] = system: undifferentiated keratin (CK19); assay: Immunolabelling of keratin 19 in human skin explants
Experimental: as §1, §2

[4] = system: collagen III; assay: Immunolabelling of collagen III in human skin explants
Experimental: as §1, §2

[5] = system: fibronectin; assay: Immunolabelling of fibronectin in human skin explants
Experimental: as §1, §2

[6] = system: basal keratin (CK14); assay: Immunolabelling of keratin 14 in human skin explants
Experimental: as §1, §2

[7] = system: glycosaminoglycan without an acid group; assay: P.A.S. Alcian blue staining of glycosaminoglycans without acid groups in human skin explants
Experimental: as §1, §2
This effect, clearly visible at D6 and D8, is characterised by a PAS positive increase in the number of fibroblasts in the papillary dermis, especially in the band situated along the dermo-epidermal junction and by increased levels of GAGs in these fibroblasts.

[8] = topical daily, human skin explants, immunolabelling

Question: CC(=O)N[C@@H](CO)C(=O)N[C@@H](CC(=O)O)C(=O)N[C@@H](CCCCN)C(=O)N1CCC[C@H]1C(=O)O [AcSDKP, CH3CO-Ser-Asp-Lys-Pro] (Ac-SDKP-OH) was tested. Which “Collagen IV levels in the basal membrane” value ([1]; 10^-5 M and 10^-8 M) did it give?
Answer: less pronounced than that for type III collagen

Question: What about the “Increase in collagen IV levels” value ([1]; 10^-5 M compared with 10^-8 M) of the same compound?
Answer: higher

Question: What about the “General morphology: epidermal structure” value ([2]; 10^-5 M and 10^-8 M, human skin explants) of the same compound?
Answer: triggers stimulation of the epidermal structure as of D6 of treatment

Question: What about the “Increase in epidermal thickness” value ([2]; 10^-5 M compared with 10^-8 M) of the same compound?
Answer: increase in epidermal thickness is greater

Question: What about the “Keratin 19 (CK19) expression” value ([3]; 10^-5 M and 10^-8 M, topical daily, immunolabelling) of the same compound?
Answer: overexpression of the skin's dermal attachments as of D6 of treatment

Question: And the “Keratin 19 (CK19) expression” value ([3]; 10^-5 M compared with 10^-8 M)?
Answer: less marked effect

Question: And the “Collagen III expression” value ([4]; 10^-5 M, D8)?
Answer: very clear overexpression of collagen III in the papillary and reticular dermis

Question: What about the “Collagen III levels” value ([4]; 10^-5 M, six days of treatment) of the same compound?
Answer: very marked increase in collagen III levels in the papillary dermis along the dermo-epidermal junction

Question: What about the “Collagen III level” value ([4]; 10^-8 M, D8) of the same compound?
Answer: level of collagen III increases along the dermo-epidermal junction and forms a thicker collagen band

Question: What about the “Collagen III expression along the dermo-epidermal junction” value ([4]; 10^-8 M, six days of treatment, compared with 10^-5 M) of the same compound?
Answer: less pronounced

Question: And the Fibronectin expression ([5]; 10^-5 M compared with 10^-8 M)?
Answer: greater activity

Question: What about the Fibronectin expression [5, 8] of the same compound?
Answer: fibronectin network is denser and has thicker fibres; also recorded: triggers overexpression of this protein along a dermo-epidermal junction as well as in the papillary and reticular dermis

Question: What about the “Keratin 14 (CK14) restructuring effect” value ([6]; 10^-5 M compared with 10^-8 M) of the same compound?
Answer: restructuring effect is greater

Question: And the “Keratin 14 (CK14) expression” value [6, 8]?
Answer: gradual increase in the levels of this protein in the basal and superbasal position as of D4 of treatment

Question: What about the “Glycosaminoglycan (GAGs) levels” value ([7]; 10^-5 M and 10^-8 M, clearly visible at D6 and D8) of the same compound?
Answer: significant increase in the levels of these compounds in the skin

Question: What about the “Glycosaminoglycan (GAGs) expression” value ([7]; 10^-5 M compared with 10^-8 M) of the same compound?
Answer: higher level of activity
